Literature values in paper PMC8025584, “Identification of multipotent drugs for COVID-19 therapeutics with the evaluation of their SARS-CoV2 inhibitory activity” (Computational and Structural Biotechnology Journal, 2021).
Structures can show the parent of a compound that is named as a salt. Where two headings read alike, the source gives them in different places.

Test system: differentially expressed human proteins in COVID-19
Settings: cited from earlier work
[1] = gene HCK, drug-gene interaction listed in DGIdb export, ref DGIdb
[2] = gene TNF, drug-gene interaction listed in DGIdb export, ref DGIdb
[3] = gene CACNA1A, drug-gene interaction listed in DGIdb export, ref DGIdb

Question: Which interaction_types (gene AQP9, ref DGIdb) does the source give for `O=C(CCc1ccc(O)cc1)c1c(O)cc(O)cc1O` [PHLORETIN] here?
Answer: inhibitor

Question: Which interaction_types (gene FPR1, ref DGIdb) does the source give for `COc1cc(/C=N/NC(=O)c2ccc3c(c2)OCO3)ccc1OCc1ccccc1` [chembl:CHEMBL1290251] here?
Answer: agonist

Question: With `COc1ccccc1OCCNCC(O)COc1cccc2[nH]c3ccccc3c12` (stereo not drawn) [CARVEDILOL, reference compound] as the compound, how does the interaction_types (gene KCNJ2, ref DGIdb) read?
Answer: inhibitor

Question: What does the source list for `COc1cc(Nc2ncc(F)c(Nc3ccc4c(n3)N(COP(=O)(O)O)C(=O)C(C)(C)O4)n2)cc(OC)c1OC` [FOSTAMATINIB, reference compound]?
Answer: interaction_types (gene EIF2AK2, ref DGIdb): inhibitor; interaction_types (gene FGR, ref DGIdb): inhibitor; interaction_types (gene GAK, drug-gene interaction listed in DGIdb export, ref DGIdb): inhibitor; interaction_types [1]: inhibitor; interaction_types (gene PTK2B, ref DGIdb): inhibitor; interaction_types (gene TAOK3, ref DGIdb): inhibitor

Question: With `Cc1ccc(-n2nc(C(C)(C)C)cc2NC(=O)NCc2cc(F)ccc2Oc2ccc3c(cnn3CCO)c2)cc1` [PEXMETINIB] as the compound, how does the interaction_types [1] read?
Answer: inhibitor

Question: With `Nc1ncnc2c1ncn2[C@@H]1O[C@H](COP(=O)(O)O)[C@@H](O)[C@H]1O` [ADENOSINE PHOSPHATE] as the compound, how does the interaction_types (gene PRKAB1, ref DGIdb) read?
Answer: activator

Question: Which interaction_types [2] does the source give for `Nc1cccc2c1C(=O)N(C1CCC(=O)NC1=O)C2=O` (stereo not drawn) [POMALIDOMIDE] here?
Answer: inhibitor

Question: Which interaction_types (gene TUBA4A, ref DGIdb) does the source give for `CC[C@]12C=CCN3CC[C@@]4(c5cc([C@@]6(C(=O)OC)C[C@@H]7C[C@@H](C(C)(F)F)CN(Cc8c6[nH]c6ccccc86)C7)c(OC)cc5N(C)[C@H]4[C@@](O)(C(=O)OC)[C@@H]1OC(C)=O)[C@@H]32` [VINFLUNINE] here?
Answer: inhibitor

Question: With INFLIXIMAB as the compound, how does the interaction_types [2] read?
Answer: inhibitor

Question: With BAMINERCEPT as the compound, how does the interaction_types (gene TNFSF14, ref DGIdb) read?
Answer: inhibitor

Question: With TRASTUZUMAB EMTANSINE as the compound, how does the interaction_types read?
Answer: inhibitor

Question: For `C[C@]1(C(=O)N(CCCC(=O)O)Cc2cccc(Cl)c2)CCN1C(=O)c1csc2ccccc12` [GLPG-0974], which interaction_types (gene FFAR2, ref DGIdb) is on record?
Answer: antagonist

Question: With `CCOC(=O)c1ccc(C#Cc2ccc3c(c2)C(C)(C)CCS3)nc1` [TAZAROTENE, reference compound] as the compound, how does the interaction_types (gene RXRB, ref DGIdb) read?
Answer: agonist

Question: Which interaction_types (gene CCR1, drug-gene interaction listed in DGIdb export, ref DGIdb) does the source give for `CC(C)[C@@H](NC(=O)NCC(C)(C)O)C(=O)N1CC[C@](O)(c2ccc(Cl)cc2)C(C)(C)C1` [BMS-817399] here?
Answer: antagonist

Question: With `CCCCc1c(-c2ccc(OC)cc2)[nH]c2nccnc12` [ALOISINE] as the compound, how does the interaction_types (gene PTK2B, ref DGIdb) read?
Answer: inhibitor

Question: With `NS(=O)(=O)c1cc2c(cc1Cl)NC(C(Cl)Cl)NS2(=O)=O` (stereo not drawn) [TRICHLORMETHIAZIDE, reference compound] as the compound, how does the interaction_types (gene CA1, ref DGIdb) read?
Answer: inhibitor

Question: With `Nc1ccc(SC[C@@H]2CO[C@](CCc3ccc(Cl)cc3)(Cn3ccnc3)O2)cc1` [AZALANSTAT] as the compound, how does the interaction_types (gene CYP19A1, ref DGIdb) read?
Answer: inhibitor

Question: With `CC1(C)O[C@@H]2[C@@H](CO[C@@]3(COS(N)(=O)=O)OC(C)(C)O[C@@H]23)O1` [TOPIRAMATE] as the compound, how does the interaction_types (gene CA1, ref DGIdb) read?
Answer: inhibitor

Question: With `Nc1cnc(-c2cc(Cl)cc(Cl)c2Cl)c(N)n1` [[…]] as the compound, how does the interaction_types [3] read?
Answer: blocker

Question: Which interaction_types (gene FGR, ref DGIdb) does the source give for `Cc1cc(-c2cc(OC(=O)c3ccccc3)ccc2Cl)cc2nnc(Nc3ccc(OCCN4CCCC4)cc3)nc12` [TG100-801] here?
Answer: inhibitor

Question: What about the interaction_types [1] of the same compound?
Answer: inhibitor

Question: Which interaction_types (gene SELL, ref DGIdb) does the source give for `C[C@@H]1O[C@@H](O[C@@H]2[C@@H](NC(=O)c3cc(=O)[nH]c(=O)[nH]3)C[C@@H](C(=O)NCCNC(=O)COCCOCC(=O)Nc3cc(S(=O)(=O)O)cc4cc(S(=O)(=O)O)cc(S(=O)(=O)O)c34)C[C@H]2O[C@@H]2O[C@H](CO)[C@H](O)[C@H](O[C@@H](CC3CCCCC3)C(=O)O)[C@H]2OC(=O)c2ccccc2)[C@@H](O)[C@H](O)[C@@H]1O` [[…]] here?
Answer: antagonist

Question: With `CN(c1ncccc1CNc1nc(Nc2ccc3c(c2)CC(=O)N3)ncc1C(F)(F)F)S(C)(=O)=O` [PF-00562271] as the compound, how does the interaction_types (gene PTK2B, ref DGIdb) read?
Answer: inhibitor

Question: With `COc1ccc2c(c1)[C@]13CCCC[C@@H]1[C@H](C2)N(C)CC3` [DEXTROMETHORPHAN] as the compound, how does the interaction_types (gene CYBB, ref DGIdb) read?
Answer: inhibitor

Question: For `CSCCNc1nc(SCCC(F)(F)F)nc2c1ncn2[C@@H]1O[C@H](COP(=O)(O)OP(=O)(O)C(Cl)(Cl)P(=O)(O)O)[C@@H](O)[C@H]1O` [Cangrelor, reference compound], which interaction_types (gene P2RY13, ref DGIdb) is on record?
Answer: antagonist

Question: With `CC(C)COCC(CN(Cc1ccccc1)c1ccccc1)N1CCCC1` (stereo not drawn) [BEPRIDIL HYDROCHLORIDE] as the compound, how does the interaction_types [3] read?
Answer: blocker

Question: Which interaction_types (gene CA1, ref DGIdb) does the source give for `CC1(C)OC(c2ccc(S(N)(=O)=O)cc2)=C(c2cccc(F)c2)C1=O` [POLMACOXIB] here?
Answer: inhibitor

Question: For `C/C(=C\c1ccc(OCCN2CCOCC2)cc1)c1ccc2c(c1)C(C)(C)CCC2(C)C` [MOFAROTENE], which interaction_types (gene RXRB, ref DGIdb) is on record?
Answer: modulator

Question: With PEGFILGRASTIM as the compound, how does the interaction_types (gene CSF3R, ref DGIdb) read?
Answer: agonist

Question: Which interaction_types does the source give for `C#CC1(OC(N)=O)CCCCC1` [ETHINAMATE] here?
Answer: inhibitor

Question: Which interaction_types (gene RXRB, ref DGIdb) does the source give for `CC1=C(/C=C/C(C)=C\C=C\C(C)=C\C(=O)O)C(C)(C)CCC1` [ALITRETINOIN, reference compound] here?
Answer: agonist

Question: With `Cc1c(CN2CCN(C(=O)[C@H](C)O)CC2)sc2c(N3CCOCC3)nc(-c3cnc(N)nc3)nc12` [APITOLISIB] as the compound, how does the interaction_types (gene FGR, ref DGIdb) read?
Answer: inhibitor

Question: With `N#Cc1ccc(C(c2ccc(C#N)cc2)n2cncn2)cc1` [LETROZOLE] as the compound, how does the interaction_types (gene CYP19A1, ref DGIdb) read?
Answer: antagonist¦inhibitor

Question: Which interaction_types (gene TUBA4A, ref DGIdb) does the source give for `CC[C@]1(O)C[C@@H]2CN(CCc3c([nH]c4ccccc34)[C@@](C(=O)OC)(c3cc4c(cc3OC)N(C)[C@H]3[C@@](O)(C(=O)OC)[C@H](OC(C)=O)[C@]5(CC)C=CCN6CC[C@]43[C@@H]65)C2)C1` [VINBLASTINE SULFATE] here?
Answer: inhibitor

Question: With `CCN[C@H]1C[C@H](C)S(=O)(=O)c2sc(S(N)(=O)=O)cc21` [DORZOLAMIDE] as the compound, how does the interaction_types (gene CA1, ref DGIdb) read?
Answer: inhibitor

Question: With `C=C1C[C@@H]2CC[C@@]34C[C@H]5O[C@H]6[C@@H](O3)[C@H]3O[C@H](CC[C@@H]3O[C@H]6[C@H]5O4)CC(=O)C[C@@H]3[C@@H](OC)[C@@H](C[C@H](O)CN)O[C@H]3C[C@H]3O[C@@H](CC[C@@H]1O2)C[C@@H](C)C3=C` [ERIBULIN MESYLATE] as the compound, how does the interaction_types (gene TUBA4A, ref DGIdb) read?
Answer: inhibitor

Question: With `CCCCCCCN(CC)CCCC(O)c1ccc(NS(C)(=O)=O)cc1` (stereo not drawn) [IBUTILIDE, reference compound] as the compound, how does the interaction_types (gene KCNH7, ref DGIdb) read?
Answer: inhibitor

Question: For `N[C@@H](CCC(=O)N[C@@H](CS)C(=O)NCC(=O)O)C(=O)O` [GLUTATHIONE], which interaction_types is on record?
Answer: cofactor

Question: With `NS(=O)(=O)c1cc(C2(O)NC(=O)c3ccccc32)ccc1Cl` (stereo not drawn) [CHLORTHALIDONE, reference compound] as the compound, how does the interaction_types (gene CA1, ref DGIdb) read?
Answer: inhibitor

Question: For `CCOC(=O)C1=C(COCCN)NC(C)=C(C(=O)OC)C1c1ccccc1Cl` (stereo not drawn) [AMLODIPINE], which interaction_types (gene CA1, ref DGIdb) is on record?
Answer: inhibitor

Question: Which interaction_types does the source give for `CC(C)C[C@H](CN)CC(=O)O` [PREGABALIN, reference compound] here?
Answer: modulator¦inhibitor

Question: Which interaction_types (gene ALOX5AP, ref DGIdb) does the source give for `CCOc1ccc(-c2ccc(Cn3c(CC(C)(C)C(=O)O)c(SC(C)(C)C)c4cc(OCc5ccc(C)cn5)ccc43)cc2)cn1` [FIBOFLAPON] here?
Answer: inhibitor

Question: With `NC(=O)[C@@H](CCC(F)(F)F)N(Cc1ccc(-c2ncon2)cc1F)S(=O)(=O)c1ccc(Cl)cc1` as the compound, how does the interaction_types (gene PSENEN, ref DGIdb) read?
Answer: inhibitor

Question: With `COc1ccc(-c2ccc3cc(C(=O)O)ccc3c2)cc1C12CC3CC(CC(C3)C1)C2` as the compound, how does the interaction_types (gene JUN, drug-gene interaction listed in DGIdb export, ref DGIdb) read?
Answer: antagonist

Question: And the interaction_types (gene RXRB, ref DGIdb)?
Answer: agonist

Question: With `COc1cc2c(c(OC)c1OC)-c1ccc(OC)c(=O)cc1[C@@H](NC(C)=O)CC2` [COLCHICINE] as the compound, how does the interaction_types (gene TUBA4A, ref DGIdb) read?
Answer: inhibitor

Question: For `COc1ccccc1OCC(O)COC(N)=O` (stereo not drawn) [METHOCARBAMOL], which interaction_types (gene CA1, ref DGIdb) is on record?
Answer: inhibitor

Question: Which interaction_types (gene KCNH7, ref DGIdb) does the source give for `Nc1ccncc1` [DALFAMPRIDINE] here?
Answer: blocker

Question: With `CC[C@]1(O)C[C@H]2CN(CCc3c([nH]c4ccccc34)[C@@](C(=O)OC)(c3cc4c(cc3OC)N(C=O)[C@H]3[C@@](O)(C(=O)OC)[C@H](OC(C)=O)[C@]5(CC)C=CCN6CC[C@]43[C@@H]65)C2)C1` [VINCRISTINE SULFATE] as the compound, how does the interaction_types (gene TUBA4A, ref DGIdb) read?
Answer: inhibitor
